Source: publication PMC5983452 (PLoS ONE, 2018)
“And” between values parts separate entries of the source, which are not always exact repeats. Equal entries are not always repeated. Structures can show the parent of a compound that is named as a salt.

Tests used:
[1] = Hepatocyte stability, rat; type: in vitro ADME, SD rats
SMYD2 [2] = target: T1, SMYD2 (Homo sapiens, UniProt Q9NRG4); test: ITC binding assay EPZ033294/SMYD2; parameters: Full length FLAG-SMYD2 and C-terminally Avi-tagged full length SMYD2 (SMYD2-Avi) were cloned into pFastbac vectors; FLAG (N); His tag with TEV cleavage site (N, cleaved yes); made in house; host or cells: Sf9 insect cells (baculovirus); conditions: 25°C
T1 sequence (Q9NRG4 whole entry): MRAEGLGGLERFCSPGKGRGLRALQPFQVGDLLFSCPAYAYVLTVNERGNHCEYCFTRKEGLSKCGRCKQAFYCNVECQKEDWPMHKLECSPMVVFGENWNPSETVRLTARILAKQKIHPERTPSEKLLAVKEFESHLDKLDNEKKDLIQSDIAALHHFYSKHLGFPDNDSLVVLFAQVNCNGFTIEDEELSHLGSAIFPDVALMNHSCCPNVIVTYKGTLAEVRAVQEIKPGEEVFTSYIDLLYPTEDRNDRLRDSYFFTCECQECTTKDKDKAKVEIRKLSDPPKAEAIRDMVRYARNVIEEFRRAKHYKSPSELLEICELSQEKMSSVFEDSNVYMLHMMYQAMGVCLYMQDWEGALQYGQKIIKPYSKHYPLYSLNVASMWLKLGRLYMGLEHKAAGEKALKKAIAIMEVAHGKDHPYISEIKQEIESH
Method: The assay buffer contained 20 mM Tris-HCl pH 8.0, 100 mM sodium chloride, 1 mM TCEP, 5% glycerol, 50 μM S-adenosylmethionine (SAM), and 0.1% DMSO. […] The assay background signal was generated by injecting compound into buffer in the absence of enzyme and subtracted from the experimental data. The binding isotherm was fitted using the single site model in the Origin software for data analysis (OriginLab, Northampton, MA).

SMYD2 [3] = target: T1, SMYD2; test: SPR binding assay EPZ033294/SMYD2 (SensiQ); parameters: Full length FLAG-SMYD2 and C-terminally Avi-tagged full length SMYD2 (SMYD2-Avi) were cloned into pFastbac vectors; FLAG (N); His tag with TEV cleavage site (N, cleaved yes); made in house; host or cells: Sf9 insect cells (baculovirus); conditions: 15°C, 10 µM SAM in running buffer; read-out: dissociation constant (KD) by SPR
Method: The running buffer contained 25 mM Tris-HCl pH 8.0, 150 mM NaCl, 5 mM DTT, 10 µM ZnCl2, 0.05% Tween-20, 10 µM SAM, and 2% DMSO. Avi-tagged biotinylated SMYD2 was immobilized on a neutravidin-coupled BioCap chip up to 6000 RU. Streptavidin on the reference cell was blocked with biocytin. […] Dissociation time was 1000 sec. Analysis of double-referenced data was performed using the 1:1 binding model in QDAT data analysis tool (SensiQ Technologies Inc.).

| Compound | CLint measured with hepatocytes, Rat ([1]; 1 µM) [µL/min/106 cells] | hepatocyte CLint at 1 µM ([1]; male, Sprague-Dawley, rat, cryopreserved hepatocytes, read-out: CLint measured with hepatocytes, Rat) [µL/min/1e6 cells] | stoichiometry of binding (N) by ITC (SMYD2 [2]) | Kd (SMYD2 [2]; 50 μM SAM, three test occasions, read-out: dissociation constant KD by ITC) [nM] | Kd (SMYD2 [3]) [nM] |
| --- | --- | --- | --- | --- | --- |
| NC1CCC(S(=O)(=O)N2C3CCC2CC(NC(=O)c2cc(C4CC4)on2)C3)CC1 [EPZ028862, N-((1R,3R,5S)-8-((1r,4R)-4-aminocyclohexylsulfonyl)-8-aza-bicyclo[3.2.1]octan-3-yl)-5-cyclopropylisoxazole-3-carboxamide hydrochloride] | 3.5 | 5.2 |  |  |  |
| O=C(NC1CN(Cc2cnn(Cc3ccc(Cl)cc3)c2)C1)c1cn(C2CC2)nn1 [EPZ033294] |  |  | 0.7 ± 1 and 0.7 | 8.3 ± 8.2 | 5 |
